One compound from ChEMBL document CHEMBL5209569, “Membrane potential based assay for SLC6A8 using HEK-293 JumpIN SLC6A8 OE cells” (2022) can be followed below.

The experiment concerns the target T1, Sodium- and chloride-dependent creatine transporter 1 (Homo sapiens, UniProt P48029).
T1 sequence (P48029 whole entry): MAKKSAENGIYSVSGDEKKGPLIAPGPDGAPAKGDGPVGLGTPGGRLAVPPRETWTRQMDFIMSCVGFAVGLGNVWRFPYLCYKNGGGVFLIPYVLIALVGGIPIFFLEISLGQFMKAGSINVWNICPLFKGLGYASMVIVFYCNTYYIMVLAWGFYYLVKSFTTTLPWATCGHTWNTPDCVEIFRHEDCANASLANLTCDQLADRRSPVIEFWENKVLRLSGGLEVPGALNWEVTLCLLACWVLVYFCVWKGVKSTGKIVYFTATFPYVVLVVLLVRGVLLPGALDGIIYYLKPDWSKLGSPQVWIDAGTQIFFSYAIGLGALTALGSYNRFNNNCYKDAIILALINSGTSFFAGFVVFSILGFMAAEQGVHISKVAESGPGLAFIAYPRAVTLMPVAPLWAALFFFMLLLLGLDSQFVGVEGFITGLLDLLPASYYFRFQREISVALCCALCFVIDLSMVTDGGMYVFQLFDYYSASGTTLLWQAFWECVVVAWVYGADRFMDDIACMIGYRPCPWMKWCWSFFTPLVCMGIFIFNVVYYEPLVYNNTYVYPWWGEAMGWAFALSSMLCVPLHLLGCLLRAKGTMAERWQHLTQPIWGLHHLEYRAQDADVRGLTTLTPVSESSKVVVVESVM
Nature of the experiment: Substrate uptake by the Sodium- and Chloride-Dependent Creatine Transporter 1 (CRTR, SLC6A8) as assessed by the fluorescent FLIPR membrane potential dye in HEK-293 JumpIN-SLC6A8 cells (PubChem AID: 1794823). The format is functional, cell-based, HEK293.

`CN(CC(=O)O)C(=N)N` [CREATINE]: the EC50 was found to be 5 µM.

As a reminder, the EC50 is the concentration that produces a half-maximal response. Low readings indicate greater potency, high ones weaker potency.
